Source: patent US20020022718A1, “Genes identified as required for proliferation of E. coli” (priority 1999, published 2002)
In brackets after ≈: the same amount, converted by molar mass. Like-named read-outs stand apart in the source and are kept apart here.

B1: EcXA119: antisense clone insert to E. coli b2883 (nucleic acid, listed as Escherichia coli)
antisense: CTCTTTTTCTTCGAGATGGACGCAGTGAGCAAAGACACAGTTTTTACCGGTCAGGCCGTACTGATGGTAAACATCCAGATAACCATCATGGTCAGGATAAAGCGATTTCACCCAGGCAATTTCATCTTTGTTTTCACAGAGATGGGTATGTACCCACGTATCCGGATATTCTTCTTTCAGGCGTTGCGCCATCGCCATCTGTTCAGGAGATGAGGTCGGGGCGAAGCGTGGCGTAATCGCATATAGCAGACGACC
B2: EcXA120: antisense clone insert to E. coli b1509 (nucleic acid, listed as Escherichia coli)
antisense: TCCGCGATCGCGGATAAAAAGGAGGATTTAAATAAGGCGTTGATGCGCCGTTTGAAGTCGGCAATATTAAGCCGCATGCCATCTCGACATGCGGCTTATACGGTTTACCAGCTATATTTCACTCCCAGCATGCCCTGAGTATCGCTATAGCCTTTATCACCTAGTTGCACACCGACATTCCCCCACAGGCTAAGGTTGTTATTTACTTTCGCCTCAACCCCGGTACGTACTTCACCGAGATTACGCGCACCTTCACGGCCTACGGTTTGACCATTCATCTTCACGGCGTAGACTTTGCTATTGTTGATCCAGTTCGCTTCAATGTAAGGCTGGAACTCACGCTGTTTACCATCGTCACGCTGGTGATGGCTGTTCAGGTAGGTTTTCACCCCAAG

Experiments:
[1] = tested on: Bacterial cells expressing antisense nucleic acid complementary to rplL and rplJ (50S ribosomal subunit proteins); assay: microbe, parasite or virus in culture; assay type: cell-based, E. coli; conditions: for IC50: Escherichia coli; for Fold Increase in Sensitivity: IC50 −IPTG versus +IPTG (400 μM); for Sensitivity Increased?: significant decrease in IC50 in the presence of inducer IPTG
Method: Two-fold dilution series of antibiotics with a known mechanism of action are generated in the culture media selected for further assay development that has been supplemented with the antibiotic used to maintain the construct. A panel of test antibiotics known to act on different pathways is tested side by side with three to four wells being used to evaluate the effect of a test antibiotic on cell growth at each concentration. Equal volumes of test antibiotic and cells are added to the wells of a 384 well microtiter plate and mixed. Cells are prepared as described above using the media selected for assay development supplemented with the antibiotic required to maintain the antisense construct and are diluted 1:100 in identical media immediately prior to addition to the microtiter plate wells. For a control, cells are also added to several wells that contain the solvent used to dissolve the antibiotics but no antibiotic. Cell growth is monitored continuously by incubation at 37° C. in a microtiter plate reader monitoring the OD600 of the wells over an 18-hour period. […] A plot of percent inhibition against log[antibiotic concentration] allows extrapolation of an IC50 value for each antibiotic.
The culture media selected for use in the assay is supplemented with inducer at concentrations shown to inhibit cell growth by 50% and 80% as described above and the antibiotic used to maintain the construct. Two fold dilution series of the panel of test antibiotics used above are generated in each of these media. Several antibiotics are tested side by side with three to four wells being used to evaluate the effects of an antibiotic on cell growth at each concentration, in each media. Equal volumes of test antibiotic and cells are added to the wells of a 384 well microtiter plate and mixed. Cells are prepared as described above using the media selected for use in the assay supplemented with the antibiotic required to maintain the antisense construct. […] Immediately prior to addition to the microtiter plate wells, the cultures are adjusted to an appropriate OD600 (typically 0.002) by dilution into warm (37° C.) sterile media supplemented with identical concentrations of the inducer and antibiotic used to maintain the antisense construct. For a control, cells are also added to several wells that contain solvent used to dissolve test antibiotics but which contain no antibiotic. Cell growth is monitored continuously by incubation at 37° C. in a microtiter plate reader monitoring the OD600 of the wells over an 18-hour period. […] A plot of percent inhibition against log[antibiotic concentration] allows extrapolation of an IC50 value for each antibiotic.
Antibiotics of various chemical classes and modes of action were purchased from Sigma Chemicals (St. Louis, Mo.). Stock solutions were prepared by dissolving each antibiotic in an appropriate aqueous solution based on information provided by the manufacturer. The final working solution of each antibiotic contained no more than 0.2% (w/v) of any organic solvent. To determine their potency against a bacterial strain engineered for expression of an antisense complementary to a proliferation-required gene encoding 50S ribosomal protein, each antibiotic was serially diluted two or three fold in growth medium supplemented with the appropriate antibiotic for maintenance of the anti-sense construct. At least ten dilutions were prepared for each antibiotic. 25 μL aliquots of each dilution were transferred to discrete wells of a 384-well microplate (the assay plate) using a multi-channel pipette. Quadruplicate wells were used for each dilution of an antibiotic under each treatment condition (plus and minus inducer). Each assay plate contained twenty wells for cell growth controls (growth media replacing antibiotic), ten wells for each treatment (plus and minus inducer, in this example IPTG).

Klebsiella pneumoniae = assay: Growth inhibition by induced E. coli antisense RNA in Klebsiella pneumoniae; assay type: cell-based; parameters: key: +: a positive in Table V below means that at least 10 fold more cells were required to observe a colony on the induced plate than on the non-induced plate; −: If there was no effect of antisense RNA expression in a microorganism, the clone is minus in Table V below; conditions: antisense RNA expression induced with IPTG, serial dilution plating
Method: To study the effects of transcriptional induction in liquid medium, growth curves were carried out by back diluting cultures 1:200 into fresh media with or without 1 mM IPTG and measuring the OD450 every 30 minutes (min). To study the effects of transcriptional induction on solid medium, 10^2, 10^3, 10^4, 10^5, 10^6, 10^7 and 10^8 fold dilutions of overnight cultures were prepared. Aliquots of from 0.5 to 3 μl of these dilutions were spotted on selective agar plates with or without 1 mM IPTG. After overnight incubation, the plates were compared to assess the sensitivity of the clones to IPTG.
Molecule No. EcXA190, encoding a portion of the b3052 gene of Escherichia coli, was either transformed directly into Enterobacter cloacae, Salmonella typhimurium and/or Klebsiella pneumoniae or subcloned into an expression vector functional in these species and the subclones transformed into these organisms. Suitable expression vectors are well known in the art. These expression vectors were introduced into Enterobacter cloacae, Salmonella typhimurium and/or Klebsiella pneumoniae cells that were then assayed for growth inhibition according to the method of Example 1. After growth in liquid culture, cells were plated at various serial dilutions and a score determined by calculating the log difference in growth for INDUCED vs. UNINDUCED antisense RNA expression as determined by the maximum 10 fold dilution at which a colony was observed. If there was no effect of antisense RNA expression in one organism, the clone is given a score of zero “0” in that organism. In contrast, a score of “8” means that 10^8 times more cells were required to observe a colony formed on the induced state than in the non-induced state under the conditions used and in that organism.
In addition, the above methods were validated using other antisense nucleic acids which inhibit the growth of E. coli which were identified using methods similar to those described above. Expression vectors which inhibited growth of E. coli upon induction of antisense RNA expression with IPTG were transformed directly into Enterobacter cloacae, Klebsiella pneumonia or Salmonella typhimurium. The transformed cells were then assayed for growth inhibition according to the method of Example 1. After growth in liquid culture, cells were plated at various serial dilutions and a score determined by calculating the log difference in growth for INDUCED vs. UNINDUCED antisense RNA expression as determined by the maximum 10 fold dilution at which a colony was observed. If there was no effect of antisense RNA expression in a microorganism, the clone is minus in Table V below. In contrast, a positive in Table V below means that at least 10 fold more cells were required to observe a colony on the induced plate than on the non-induced plate under the conditions used and in that microorganism.

| Molecule | IC50 ([1]; read-out: IC50 (+IPTG)) [µg/mL] | IC50 ([1]; read-out: IC50 (−IPTG)) [µg/mL] | Fold Increase in Sensitivity [1] | Sensitivity Increased? [1] | IC50 (+IPTG) ([1]; antisense to rplL and rplJ induced, 400 μM IPTG) [µg/mL] | IC50 (−IPTG) ([1]; non-induced cells, 0 μM IPTG) [µg/mL] | Sensitivity of K. pneumoniae to antisense nucleic acid (growth inhibition, induced vs. uninduced) (Klebsiella pneumoniae) |
| --- | --- | --- | --- | --- | --- | --- | --- |
| CC1COc2c(N3CCN(C)CC3)c(F)cc3c(=O)c(C(=O)O)cn1c23 (stereo not drawn) [Ofloxacin] | 0.0459 (≈ 0.127 µM) | 0.0496 (≈ 0.137 µM) | 1 |  |  |  |  |
| CN[C@@H]1[C@H](O)[C@H](NC)[C@H]2O[C@@]3(O)C(=O)C[C@@H](C)O[C@H]3O[C@@H]2[C@H]1O [Spectinomycin] | < 0.156 | 18.1 (≈ 54.3 µM) |  | Yes |  |  |  |
| [H]/N=C(/N)N[C@H]1[C@H](O)[C@@H](O)[C@H](O[C@@H]2O[C@@H](C)[C@](O)(C=O)[C@H]2O[C@@H]2O[C@@H](CO)[C@H](O)[C@@H](O)[C@@H]2NC)[C@@H](N/C(N)=N\[H])[C@@H]1O [Streptomycin] | 0.161 (≈ 0.277 µM) | 11.3 (≈ 19.4 µM) | 70 | Yes |  |  |  |
| CN(C)[C@@H]1C(O)=C(C(N)=O)C(=O)[C@@]2(O)C(O)=C3C(=O)c4c(O)cccc4[C@@](C)(O)[C@H]3C[C@@H]12 [Tetracycline] | 0.00183 (≈ 0.00412 µM) | 0.2 (≈ 0.449 µM) | 109 |  |  |  |  |
| NC[C@H]1O[C@H](O[C@H]2[C@H](O)[C@@H](O[C@H]3O[C@H](CO)[C@@H](O)[C@H](N)[C@H]3O)[C@H](N)C[C@@H]2N)[C@H](N)C[C@@H]1O [Tobramycin] | 0.0706 (≈ 0.151 µM) | 3.59 (≈ 7.69 µM) | 51 | Yes |  |  |  |
| CN[C@H](CC(C)C)C(=O)N[C@H]1C(=O)N[C@@H](CC(N)=O)C(=O)N[C@H]2C(=O)N[C@H]3C(=O)N[C@H](C(=O)N[C@H](C(=O)O)c4cc(O)cc(O)c4-c4cc3ccc4O)[C@H](O)c3ccc(c(Cl)c3)Oc3cc2cc(c3O[C@@H]2O[C@H](CO)[C@@H](O)[C@H](O)[C@H]2O[C@H]2C[C@](C)(N)[C@H](O)[C@H](C)O2)Oc2ccc(cc2Cl)[C@H]1O [Vancomycin] | 72.5 (≈ 50.1 µM) | 145 (≈ 100 µM) | 2 | No |  |  |  |
| Gentamicin |  |  | 141 | Yes | 0.01919 | 2.715 |  |
| B1 |  |  |  |  |  |  | − |
| B2 |  |  |  |  |  |  | − |
